Measurements from patent US11780845B2 (Relay Therapeutics, Inc., priority 2019, dated 2023).

What was measured:
FGFR2 = FGFR2 (Homo sapiens (Human), UniProt P21802); test: Biochemical FGFR2 Caliper assay
SNU-16 = test: Cell SNU-16 assay; assay type: cell-based
[1] = Homo sapiens, SNU-16, SNU-16 cells

FGFR2, sequence (P21802 22-821): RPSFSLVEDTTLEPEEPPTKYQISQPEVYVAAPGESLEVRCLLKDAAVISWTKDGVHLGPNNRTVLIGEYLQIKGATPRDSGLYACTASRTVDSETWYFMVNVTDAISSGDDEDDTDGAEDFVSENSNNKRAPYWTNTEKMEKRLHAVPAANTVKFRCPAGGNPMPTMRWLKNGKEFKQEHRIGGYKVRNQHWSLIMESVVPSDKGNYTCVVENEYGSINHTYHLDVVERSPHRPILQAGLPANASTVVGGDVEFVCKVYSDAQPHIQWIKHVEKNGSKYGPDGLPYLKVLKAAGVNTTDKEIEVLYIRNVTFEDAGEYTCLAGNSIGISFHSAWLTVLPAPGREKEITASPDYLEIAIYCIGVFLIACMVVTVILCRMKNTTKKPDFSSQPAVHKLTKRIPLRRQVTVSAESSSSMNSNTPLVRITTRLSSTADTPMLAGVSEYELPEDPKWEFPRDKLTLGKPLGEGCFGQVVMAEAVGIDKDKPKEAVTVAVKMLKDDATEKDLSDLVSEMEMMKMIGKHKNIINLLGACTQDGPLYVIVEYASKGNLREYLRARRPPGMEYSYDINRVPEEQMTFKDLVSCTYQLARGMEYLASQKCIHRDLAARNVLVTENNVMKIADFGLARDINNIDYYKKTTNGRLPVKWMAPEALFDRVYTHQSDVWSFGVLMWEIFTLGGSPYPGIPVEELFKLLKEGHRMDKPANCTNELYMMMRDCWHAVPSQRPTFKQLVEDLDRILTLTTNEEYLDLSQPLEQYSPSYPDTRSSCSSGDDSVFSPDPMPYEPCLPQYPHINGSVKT

C=C(C)C(=O)N[C@H]1C[C@H](c2c(-c3ccc(C(=O)N4CCCC4)cc3)c3c(N)ncnc3n2C)C1 [Example 880]
IC50 (FGFR2): 1000 to 100000 nM | IC50 (SNU-16; [1]): 1000 to 100000 nM

Cn1c(-c2ccc(NC(=O)CC#N)cc2)c(-c2ccc(C(=O)N3CCCC3)cc2)c2c(N)ncnc21 [Example 881]
IC50 (FGFR2): 1000 to 100000 nM | IC50 (SNU-16; [1]): 1000 to 100000 nM

C=C(C)C(=O)Nc1ccc(-c2c(C3=C(F)C[C@H](C(=O)N4CCCC4)CC3)c3c(N)ncnc3n2C)cc1 [Example 882]
IC50 (FGFR2): 1000 to 100000 nM | IC50 (SNU-16; [1]): 1000 to 100000 nM

C=CC(=O)N1CC(c2c(-c3ccc(C(=O)c4nccc(C)n4)cc3F)c3c(N)ncnc3n2C)C[C@@H]1C (stereo partly drawn) [Example 885]
IC50 (FGFR2): 1000 to 100000 nM | IC50 (SNU-16; SNU-16 cells): 1000 to 100000 nM

C=CC(=O)N1CC(c2c(-c3ccc(C(=O)c4nccc(C)n4)cc3F)c3c(N)ncnc3n2C)C[C@@H]1C (stereo partly drawn) [Example 886]
IC50 (FGFR2): 250 to 1000 nM | IC50 (SNU-16; SNU-16 cells): ≤ 100 nM

C=CC(=O)N1CC(c2c(C3=CC[C@H](C(=O)N4CCCC4)CC3)c3c(N)ncnc3n2C)C[C@@H]1C (stereo partly drawn) [Example 889]
IC50 (FGFR2): 250 to 1000 nM | IC50 (SNU-16; [1]): 100 to 250 nM

C=CC(=O)N1CC(c2c(C3=CC[C@@H](C(=O)N4CCCC4)CC3)c3c(N)ncnc3n2C)C[C@@H]1C (stereo partly drawn) [Example 890]
IC50 (FGFR2): 1000 to 100000 nM | IC50 (SNU-16; [1]): 1000 to 100000 nM

C=Cc1nc2cc(-c3c(-c4ccc(C(=O)N5CCCC5)cc4)c4c(N)ncnc4n3C)ccc2n1C [Example 893]
IC50 (FGFR2): 1000 to 100000 nM | IC50 (SNU-16; [1]): 1000 to 100000 nM

C=Cc1nc2ccc(-c3c(-c4ccc(C(=O)N5CCCC5)cc4)c4c(N)ncnc4n3C)cc2n1C [Example 895]
IC50 (FGFR2): 1000 to 100000 nM | IC50 (SNU-16; [1]): 1000 to 100000 nM

Cc1ccnc(Oc2ccc(-c3c(-c4ccc(NC(=O)CCl)cc4)n(C)c4ncnc(N)c34)cc2)n1 [Example 897]
IC50 (FGFR2): 100 to 250 nM | IC50 (SNU-16; [1]): ≤ 100 nM

C=C(C)C(=O)Nc1ccc(-c2c(-n3ccc(C(=O)N4CCCC4)cc3=O)c3c(N)ncnc3n2C)cc1 [Example 898]
IC50 (FGFR2): < 100 nM | IC50 (SNU-16; [1]): ≤ 100 nM

Cn1c(-c2ccc(NC(=O)C3CN3)cc2)c(-c2ccc(C(=O)N3CCCC3)cc2)c2c(N)ncnc21 (stereo not drawn) [Example 901]
IC50 (FGFR2): 1000 to 100000 nM | IC50 (SNU-16; [1]): 1000 to 100000 nM

COC(=O)Nc1ccc(-c2c(-c3ccc(C(=O)N4CCCC4)cc3)c3c(N)ncnc3n2C)cc1 [Example 902]
IC50 (FGFR2): 1000 to 100000 nM | IC50 (SNU-16; [1]): 1000 to 100000 nM

C=C(C)C(=O)N1CC(c2c(-c3ccc(C(=O)N4CCCC4)cc3)c3c(N)ncnc3n2C)=C[C@@H]1C [Example 903]
IC50 (FGFR2): 1000 to 100000 nM | IC50 (SNU-16; [1]): 1000 to 100000 nM

Cc1ccnc(Oc2ccc(-c3c(-c4ccc(NC(=O)C5=CCOC5)cc4)n(C)c4ncnc(N)c34)cc2)n1 [Example 904]
IC50 (FGFR2): 1000 to 100000 nM | IC50 (SNU-16; [1]): 1000 to 100000 nM

C=C(C)C(=O)Nc1ccc(-c2c(-c3ccc4c(c3)OCC4c3cccc(C)n3)c3c(N)ncnc3n2C)cc1 (stereo not drawn) [Example 907]
IC50 (FGFR2): < 100 nM | IC50 (SNU-16; [1]): ≤ 100 nM

C=C(C)C(=O)Nc1ccc(-c2c(-c3ccc(C(=O)NCC(C)C)c(OC)c3)c3c(N)ncnc3n2C)cc1 [Example 910]
IC50 (FGFR2): 1000 to 100000 nM | IC50 (SNU-16; [1]): 1000 to 100000 nM

C=C(C)C(=O)Nc1ccc(-c2c(-c3ccc(C(=O)NC4CCC4)c(OC)c3)c3c(N)ncnc3n2C)cc1 [Example 911]
IC50 (FGFR2): < 100 nM | IC50 (SNU-16; [1]): ≤ 100 nM

C=C(C)C(=O)Nc1ccc(-c2c(-c3ccc(C(=O)NC4CC(F)(F)C4)c(OC)c3)c3c(N)ncnc3n2C)cc1 [Example 912]
IC50 (FGFR2): < 100 nM | IC50 (SNU-16; [1]): ≤ 100 nM

Cc1ccnc(Oc2ccc(-c3c(-c4ccc(-c5cnc(C#N)o5)cc4)n(C)c4ncnc(N)c34)cc2)n1 [Example 915]
IC50 (FGFR2): 1000 to 100000 nM | IC50 (SNU-16; [1]): 250 to 1000 nM

C=CC(=O)N1CCc2ccc(-c3c(-c4ccc(Oc5nccc(C)n5)cc4)c4c(N)ncnc4n3C)cc2C1 [Example 916]
IC50 (FGFR2): 1000 to 100000 nM | IC50 (SNU-16; [1]): 100 to 250 nM

C=CC(=O)NCc1ccc(-c2c(-c3ccc(Oc4nccc(C)n4)cc3)c3c(N)ncnc3n2C)cc1 [Example 921]
IC50 (FGFR2): 1000 to 100000 nM | IC50 (SNU-16; [1]): 250 to 1000 nM

C=C(C)C(=O)Nc1ccc(-c2c(C3=CCN(C(=O)C4CCCC4)CC3)c3c(N)ncnc3n2C)cc1 [Example 922]
IC50 (FGFR2): 250 to 1000 nM | IC50 (SNU-16; [1]): 250 to 1000 nM

C=C(C)C(=O)Nc1ccc(-c2c(C3=CCN(C(=O)N4CCCC4)CC3)c3c(N)ncnc3n2C)cc1 [Example 923]
IC50 (FGFR2): 1000 to 100000 nM | IC50 (SNU-16; [1]): 250 to 1000 nM

CC1=CCN(c2ccc(-c3c(-c4ccc(Oc5nccc(C)n5)cc4)c4c(N)ncnc4n3C)cc2)C1=O [Example 924]
IC50 (FGFR2): 1000 to 100000 nM | IC50 (SNU-16; SNU-16 cells): 1000 to 100000 nM

C=C(C)C(=O)Nc1ccc(-c2c(C3=CC[C@@H](C(=O)N4CCCC4)C[C@@H]3C)c3c(N)ncnc3n2C)cc1 [Example 937]
IC50 (FGFR2): 1000 to 100000 nM | IC50 (SNU-16; [1]): 1000 to 100000 nM

C=CC(=O)NC(C)(C)c1ccc(-c2c(-c3ccc(Oc4nccc(C)n4)cc3)c3c(N)ncnc3n2C)cc1 [Example 943]
IC50 (FGFR2): 250 to 1000 nM | IC50 (SNU-16; [1]): 250 to 1000 nM

C=C(C)C(=O)Nc1ccc(-c2c(-c3ccc(C(=O)NCC4(F)CCC4)c(OC)c3)c3c(N)ncnc3n2C)cc1 [Example 946]
IC50 (FGFR2): 250 to 1000 nM | IC50 (SNU-16; [1]): 1000 to 100000 nM

C=Cc1ncc(-c2ccc(-c3c(-c4ccc(Oc5nccc(C)n5)cc4)c4c(N)ncnc4n3C)cc2)o1 [Example 947]
IC50 (FGFR2): < 100 nM | IC50 (SNU-16; [1]): ≤ 100 nM

Cc1ccnc(Oc2ccc(-c3c(-c4ccc(NCC5CO5)cc4)n(C)c4ncnc(N)c34)cc2)n1 (stereo not drawn) [Example 948]
IC50 (FGFR2): 1000 to 100000 nM | IC50 (SNU-16; [1]): 1000 to 100000 nM

Cc1ccnc(Oc2ccc(-c3c(-c4ccc(NC(=O)C5=COCC5)cc4)n(C)c4ncnc(N)c34)cc2)n1 [Example 952]
IC50 (FGFR2): < 100 nM | IC50 (SNU-16; [1]): ≤ 100 nM

C=C(C)C(=O)Nc1ccc(-c2c(-c3ccc(C(=O)NC4(COC)CCC4)c(OC)c3)c3c(N)ncnc3n2C)cc1 [Example 956]
IC50 (FGFR2): < 100 nM | IC50 (SNU-16; [1]): ≤ 100 nM

Cc1ccnc(Oc2ccc(-c3c(-c4ccc(-c5cnc(C#N)s5)cc4)n(C)c4ncnc(N)c34)cc2)n1 [Example 959]
IC50 (FGFR2): 250 to 1000 nM | IC50 (SNU-16; [1]): ≤ 100 nM

C=C(C)C(=O)Nc1ccc(-c2c(-c3ccc(C(=O)N[C@H]4C[C@@H](F)C4)c(OC)c3)c3c(N)ncnc3n2C)cc1 [Example 964]
IC50 (FGFR2): < 100 nM | IC50 (SNU-16; [1]): ≤ 100 nM

C=C(C)C(=O)Nc1ccc(-c2c(-c3ccc(C(=O)N[C@H]4C[C@H](F)C4)c(OC)c3)c3c(N)ncnc3n2C)cc1 [Example 965]
IC50 (FGFR2): < 100 nM | IC50 (SNU-16; [1]): ≤ 100 nM

C=C(C)C(=O)Nc1ccc(-c2c(-c3ccc(C(=O)N[C@H]4C[C@H](F)C4)c(COC)c3)c3c(N)ncnc3n2C)cc1 [Example 966]
IC50 (FGFR2): < 100 nM | IC50 (SNU-16; [1]): ≤ 100 nM

C=C(C)C(=O)Nc1ccc(-c2c(-c3ccc(C(=O)N[C@H]4C[C@@H](F)C4)c(COC)c3)c3c(N)ncnc3n2C)cc1 [Example 967]
IC50 (FGFR2): 1000 to 100000 nM | IC50 (SNU-16; [1]): 1000 to 100000 nM

C#Cc1ncc(-c2c(-c3ccc(C(=O)N4CCCC4)cc3)c3c(N)ncnc3n2C)cn1 [Example 968]
IC50 (FGFR2): 250 to 1000 nM | IC50 (SNU-16; [1]): 250 to 1000 nM

C=C(C)C(=O)Nc1ccc(-c2c(C3=CCC(C(=O)N4CCCC4)CC3(F)F)c3c(N)ncnc3n2C)cc1 (stereo not drawn) [Example 969]
IC50 (FGFR2): < 100 nM | IC50 (SNU-16; [1]): ≤ 100 nM

C=C(C)C(=O)Nc1ccc(-c2c(-c3ccc(C(=O)N[C@H]4C[C@H](F)C4)c(OC(F)F)c3)c3c(N)ncnc3n2C)cc1 [Example 970]
IC50 (FGFR2): 1000 to 100000 nM | IC50 (SNU-16; [1]): 1000 to 100000 nM

C=C(C)C(=O)Nc1ccc(-c2c(-c3ccc(C(=O)N[C@H]4C[C@@H](F)C4)c(OC(F)F)c3)c3c(N)ncnc3n2C)cc1 [Example 971]
IC50 (FGFR2): 250 to 1000 nM | IC50 (SNU-16; [1]): 250 to 1000 nM

C=C(C)C(=O)Nc1ccc(-c2c(-c3ccc(C(=O)N[C@H]4C[C@@H](F)C4)c(OC4CC4)c3)c3c(N)ncnc3n2C)cc1 [Example 976]
IC50 (FGFR2): 1000 to 100000 nM | IC50 (SNU-16; [1]): 1000 to 100000 nM
